Reference: patent US20170334899A1, “AMINO-SUBSTITUTED ISOTHIAZOLES” (Bayer Pharma Aktiengesellschaft, priority 2014, published 2017)

Test system: human cervical tumor cell line HeLa (ATCC CCL-2)
Assay: SAC-Formation - Nocodazole-Induced Assay
Format: cell-based
Settings: Homo sapiens, HeLa, 24 h, HeLa cells, nocodazole 0.1 μg/ml together with test compound, decrease of mitotic cells (phospho-histone H3 Ser10)
Procedure, shortened: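 HeLa cells, plated overnight, were treated 24 h at 37 °C with nocodazole (0.1 μg/ml final) plus test compound (0.005–20 μM, 0.5% DMSO) added at the same time. After fixation, anti-phospho-histone H3 Ser10 and Hoechst staining gave the mitotic cell fraction by imaging. Values came from four-parameter Hill fits.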

IC50 [nM]	SMILES
7200	Cc1nsc(Nc2cnc3ccccc3n2)c1C(=O)Nc1cccc(NS(=O)(=O)C2CN(CCF)C2)c1 [Example 287, N-[3-({[1-(2-fluoroethyl)azetidin-3-yl]sulfonyl}amino)phenyl]-3-methyl-5-(quinoxalin-2-ylamino)-1,2-thiazole-4-carboxamide]
580	CC(=O)N1CCC(Oc2ccc(NC(=O)c3c(C)nsc3Nc3cnc4ccccc4n3)cn2)CC1 [Example 22, N-{6-[(1-acetylpiperidin-4-yl)oxy]pyridin-3-yl}-3-methyl-5-(quinoxalin-2-ylamino)-1,2-thiazole-4-carboxamide]
1100	Cc1nsc(Nc2cnc(C(F)(F)F)cn2)c1C(=O)Nc1ccc(C(=O)NC2CN(CC(F)F)C2)cc1 [Example 271, N-(4-{[1-(2,2-difluoroethyl)azetidin-3-yl]carbamoyl}phenyl)-3-methyl-5-{[5-(trifluoromethyl)pyrazin-2-yl]amino}-1,2-thiazole-4-carboxamide]
960	Cc1nsc(Nc2cnc3ccccc3n2)c1C(=O)Nc1cccc(C(=O)NC2CC2)c1 [Example 249, N-[3-(cyclopropylcarbamoyl)phenyl]-3-methyl-5-(quinoxalin-2-ylamino)-1,2-thiazole-4-carboxamide]
99	Cc1nsc(Nc2cnc(C(F)(F)F)cn2)c1C(=O)Nc1ccc(F)c(OCCCNCCC(F)(F)F)c1 [Example 307, N-(4-fluoro-3-{3-[(3,3,3-trifluoropropyl)amino]propoxy}phenyl)-3-methyl-5-{[5-(trifluoromethyl)pyrazin-2-yl]amino}-1,2-thiazole-4-carboxamide]
260	Cc1nsc(Nc2cnc(C(F)(F)F)cn2)c1C(=O)Nc1ccc(C(=O)N2CCN(C)CC2)cc1 [Example 262, 3-methyl-N-{4-[(4-methylpiperazin-1 yl)carbonyl]phenyl}-5-{[5-(trifluoromethyl)pyrazin-2-yl]amino}-1,2-thiazole-4-carboxamide]
590	Cc1nsc(Nc2cnc(C(F)(F)F)cn2)c1C(=O)Nc1ccc(OC2CCN(CCF)C2)nc1 (stereo not drawn) [Example 295, N-(6-{[1-(2-fluoroethyl)pyrrolidin-3-yl]oxy}pyridin-3-yl)-3-methyl-5-{[5-(trifluoromethyl)pyrazin-2-yl]amino}-1,2-thiazole-4-carboxamide]
730	Cc1nsc(Nc2cnc3ccccc3n2)c1C(=O)Nc1ccc(N2CCN(C(=O)OC(C)(C)C)CC2)nc1 [Example 248, tert-butyl 4-[5-({[3-methyl-5-(quinoxalin-2-ylamino)-1,2-thiazol-4-yl]carbonyl}amino)pyridin-2-yl]piperazine-1-carboxylate]
830	Cc1nsc(Nc2cnc3ccccc3n2)c1C(=O)Nc1cccc(C(=O)NC(C)C)c1 [Example 253, N-[3-(isopropylcarbamoyl)phenyl]-3-methyl-5-(quinoxalin-2-ylamino)-1,2-thiazole-4-carboxamide]
130	Cc1nsc(Nc2cnc(C(F)(F)F)cn2)c1C(=O)Nc1ccc(F)c(OCC2CCN(CCF)CC2)c1 [Example 309, N-(4-fluoro-3-{[1-(2-fluoroethyl)piperidin-4-yl]methoxy}phenyl)-3-methyl-5-{[5-(trifluoromethyl)pyrazin-2-yl]amino}-1,2-thiazole-4-carboxamide]
55	Cc1nsc(Nc2cnc(C(F)(F)F)cn2)c1C(=O)Nc1ccc(F)c(OCC2CCN(C(CF)CF)C2)c1 (stereo not drawn) [Example 320, N-(3-{[1-(1,3-difluoropropan-2-yl)pyrrolidin-3-yl]methoxy}-4-fluorophenyl)-3-methyl-5-{[5-(trifluoromethyl)pyrazin-2-yl]amino}-1,2-thiazole-4-carboxamide]
1100	Cc1nsc(Nc2cncc(C(F)(F)F)n2)c1C(=O)Nc1ccc(C(=O)N2CCN(CC(F)F)CC2)cc1 [Example 273, N-(4-{[4-(2,2-difluoroethyl)piperazin-1-yl]carbonyl}phenyl)-3-methyl-5-{[6-(trifluoromethyl)pyrazin-2-yl]amino}-1,2-thiazole-4-carboxamide]
